In one test the test system is fungal organisms. The test can be described thus: Microtiter broth dilution assay of antifungal activity (MIC) in the presence and absence of 0.8M sorbitol. In kind it is cell-based. As to conditions: for MIC: 48 h, read-out: Broth Dilution Assay MIC at 2 day growth, w/o sorbitol; for Broth Dilution Assay MIC at 2 day growth, with sorbitol: with 0.8M sorbitol; for Broth Dilution Assay MIC at 2 day growth, with sorbitol / Broth Dilution Assay MIC at 2 day growth, w/o sorbitol: final concentration of cells 2 × 10^5 organisms/ml; for Broth Dilution Assay MIC at 2 day growth, w/o sorbitol: without sorbitol. How it is done: Minimal inhibitory concentrations (MICs) of corynecandin related compounds in the microtiter broth dilution in the presence and absence of 0.8M sorbitol assay were determined by a broth dilution assay described by Frost, D., Brandt, K., Cugier, D., and Goldman, R. in J. Antibiotics 48: 306-310 (1995), which is incorporated herein by reference.
^a Assay conducted as described in Frost et al., ibid, except final
concentration of cells was 2 × 10^5 organisms/ml.

The next test concerns the target T1, (1,3)-β-Glucan Synthase (Candida albicans, UniProt A0A1D8PCT0).
T1 construct: integral plasma membrane protein
In words: In vitro inhibition of (1,3)-β-glucan synthase activity. In kind it is biochemical. From the text: The fungal cell wall serves as a protective barrier and is essential for viability in a hypotonic environment. (1,3)-β-Glucan is a component of the Candida albicans cell wall, and the enzyme that biosynthesizes this polymer, glucan synthase, is not present in higher eukaryotes. (Glucan synthase is an integral plasma membrane protein that catalyzes polymerization of uridine diphosphate-glucose (UDP-Glc) into β-glucan.) Accordingly, glucan synthase represents an ideal target for the development of antifungal agents.
The assay was conducted as described by Frost, D., Brandt, K. Capobioanco, and Goldman, R., Microbiology 140: 2239-2246 (1994) which is incorporated herein by reference.

Values after ≈ are worked out from the molar mass of the structure shown. Numbered stars: 1 amine (or outer) side, 2 acyl side, 3 side chain; on linkers, the order of the positions; unused ones are H or OH. Bridge positions count the residues as written; N and C are the ends. Square brackets hold non-standard residues; d marks the D form. Peptide text beside a SMILES is read from it. * marks the point of attachment. Orn(4R-OH,5R-OH) = O=C([C@H](C[C@@H](O)[C@@H](O)N[*:3])N[*:1])[*:2]; hTyr(3S-OH,4S-OH) = N[C@H](C(=O)O)[C@H](O)[C@@H](O)c1ccc(O)cc1; Pro(3S-OH,4S-Me) = C[C@H]1CN[C@H](C(=O)O)[C@H]1O; Benzoyl(4-octyloxy) = CCCCCCCCOc1ccc(C(=O)*)cc1; Hyp = O=C(O)[C@@H]1C[C@@H](O)CN1

T1 sequence (A0A1D8PCT0 1-1897): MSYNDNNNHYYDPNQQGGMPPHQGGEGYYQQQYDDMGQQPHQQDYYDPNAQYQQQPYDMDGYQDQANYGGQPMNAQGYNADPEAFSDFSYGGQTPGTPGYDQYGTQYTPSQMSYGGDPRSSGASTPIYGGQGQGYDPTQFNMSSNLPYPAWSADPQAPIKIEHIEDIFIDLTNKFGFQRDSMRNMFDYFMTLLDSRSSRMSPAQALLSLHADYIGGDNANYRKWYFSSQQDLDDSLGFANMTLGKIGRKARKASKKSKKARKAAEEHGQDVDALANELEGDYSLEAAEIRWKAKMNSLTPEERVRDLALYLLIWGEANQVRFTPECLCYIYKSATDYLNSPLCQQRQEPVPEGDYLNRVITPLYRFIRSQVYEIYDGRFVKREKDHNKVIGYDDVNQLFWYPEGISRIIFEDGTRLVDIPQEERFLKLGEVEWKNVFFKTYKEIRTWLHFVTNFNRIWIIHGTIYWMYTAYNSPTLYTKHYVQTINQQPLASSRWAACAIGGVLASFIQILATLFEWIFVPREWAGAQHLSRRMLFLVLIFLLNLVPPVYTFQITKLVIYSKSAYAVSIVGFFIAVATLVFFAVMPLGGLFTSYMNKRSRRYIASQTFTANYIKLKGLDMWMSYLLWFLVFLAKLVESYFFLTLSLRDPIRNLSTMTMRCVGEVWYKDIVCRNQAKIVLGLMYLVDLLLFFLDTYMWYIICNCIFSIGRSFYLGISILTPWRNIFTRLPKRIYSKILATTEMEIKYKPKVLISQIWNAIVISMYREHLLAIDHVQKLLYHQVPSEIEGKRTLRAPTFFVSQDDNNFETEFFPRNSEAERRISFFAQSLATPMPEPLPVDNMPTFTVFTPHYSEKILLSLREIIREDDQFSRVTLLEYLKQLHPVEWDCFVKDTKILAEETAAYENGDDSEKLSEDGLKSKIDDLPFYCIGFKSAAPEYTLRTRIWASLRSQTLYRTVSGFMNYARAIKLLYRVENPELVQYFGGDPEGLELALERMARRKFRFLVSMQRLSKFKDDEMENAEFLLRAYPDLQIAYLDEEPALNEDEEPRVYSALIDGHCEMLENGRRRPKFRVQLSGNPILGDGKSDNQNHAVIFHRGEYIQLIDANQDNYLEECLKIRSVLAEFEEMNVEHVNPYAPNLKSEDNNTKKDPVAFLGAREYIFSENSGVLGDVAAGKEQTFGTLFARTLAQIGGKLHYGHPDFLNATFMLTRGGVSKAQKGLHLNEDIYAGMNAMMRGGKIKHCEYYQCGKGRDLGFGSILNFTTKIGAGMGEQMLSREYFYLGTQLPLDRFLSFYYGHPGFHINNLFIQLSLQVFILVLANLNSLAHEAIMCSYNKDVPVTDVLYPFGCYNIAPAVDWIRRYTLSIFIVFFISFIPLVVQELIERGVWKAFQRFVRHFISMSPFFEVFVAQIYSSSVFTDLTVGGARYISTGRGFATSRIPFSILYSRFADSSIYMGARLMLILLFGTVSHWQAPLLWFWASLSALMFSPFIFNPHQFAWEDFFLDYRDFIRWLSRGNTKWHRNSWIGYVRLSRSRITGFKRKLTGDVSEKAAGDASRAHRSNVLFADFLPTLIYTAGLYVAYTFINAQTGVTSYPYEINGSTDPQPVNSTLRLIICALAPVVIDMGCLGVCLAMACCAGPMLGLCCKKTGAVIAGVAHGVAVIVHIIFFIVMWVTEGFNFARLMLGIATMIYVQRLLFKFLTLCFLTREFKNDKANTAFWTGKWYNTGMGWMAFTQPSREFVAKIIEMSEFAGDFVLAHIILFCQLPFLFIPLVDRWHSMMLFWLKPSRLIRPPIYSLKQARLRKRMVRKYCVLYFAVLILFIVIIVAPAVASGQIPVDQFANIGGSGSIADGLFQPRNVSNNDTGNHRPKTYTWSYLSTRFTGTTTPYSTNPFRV
T1 sequence (O42825 1-195 partner): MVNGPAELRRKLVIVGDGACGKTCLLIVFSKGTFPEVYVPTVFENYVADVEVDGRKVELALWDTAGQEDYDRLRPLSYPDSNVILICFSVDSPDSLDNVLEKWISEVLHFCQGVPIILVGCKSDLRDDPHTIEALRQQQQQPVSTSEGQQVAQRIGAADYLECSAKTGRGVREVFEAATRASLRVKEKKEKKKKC

Take `C[C@@H]1[C@H](O)[C@@H](C)/C=C/C=C/C=C/C=C/C=C/C=C/C=C/[C@H](O[C@@H]2O[C@H](C)[C@@H](O)[C@H](N)[C@@H]2O)C[C@@H]2O[C@](O)(C[C@@H](O)C[C@@H](O)[C@H](O)CC[C@@H](O)C[C@@H](O)CC(=O)O[C@H]1C)C[C@H](O)[C@H]2C(=O)O` [Amphotericin B]: the MIC in the test on fungal organisms amounted to 480 µg/mL (≈ 519 µM).
The same measure, in the same setting: the value for `CCCCCCCCOc1ccc(C(=O)N[C@H]2C[C@@H](O)[C@@H](O)NC(=O)[C@@H]3[C@@H](O)[C@@H](C)CN3C(=O)[C@H]([C@@H](C)O)NC(=O)[C@H]([C@H](O)[C@@H](O)c3ccc(O)cc3)NC(=O)[C@@H]3C[C@@H](O)CN3C(=O)[C@H]([C@@H](C)O)NC2=O)cc1` [Cilofungin] ({Benzoyl(4-octyloxy)}-[Orn(4R-OH,5R-OH)]T[Hyp][hTyr(3S-OH,4S-OH)]T[Pro(3S-OH,4S-Me)]; lactam 1-C) was 980 µg/mL (≈ 951 µM).
Turning to `CCCCC/C=C\C=C\C(=O)OC[C@H]1O[C@@H](O[C@H]2[C@H](OC(=O)/C(C)=C/C=C/CC(O)C(C)CC)[C@@H](O)[C@H](c3c(O)cc(O)cc3CO)O[C@@H]2CO)[C@H](O)[C@@H](O)[C@H]1O` (stereo partly shown) [Corynecandin], the MIC in the test on fungal organisms came to 980 µg/mL (≈ 1210 µM). Further, the “Rescue of cell growth by sorbitol” value with fungal organisms (cells treated with compound, sorbitol present) is on record as “Sorbitol could rescue the growth of cells”.
As for `CCC(O)/C=C/C=C/C=C/C(=O)OC[C@H]1O[C@@H](O[C@H]2[C@H](OC(=O)/C=C/C=C/CC(O)/C(C)=C/C=C/CCC(C)CC)[C@@H](O)[C@@]3(OCc4cc(O)cc(O)c43)O[C@@H]2CO)[C@H](O)[C@@H](O)[C@H]1O` (stereo partly shown) [Papulacandin B], in the test with fungal organisms, the “Broth Dilution Assay MIC at 2 day growth, with sorbitol” value was over 250000 µg/mL and the “Broth Dilution Assay MIC at 2 day growth, w/o sorbitol” value came out at 1960 µg/mL. Moreover, the “In Vitro Inhibition of (1,3)-β-Glucan Synthase Activity IC50” value on (1,3)-β-Glucan Synthase was 1.9 µg/mL.
For the molecule Fusacandin, in the test on fungal organisms, the “Broth Dilution Assay MIC at 2 day growth, with sorbitol” value was over 250000 µg/mL and the “Broth Dilution Assay MIC at 2 day growth, w/o sorbitol” value came to 1960 µg/mL. Further, the “In Vitro Inhibition of (1,3)-β-Glucan Synthase Activity IC50” value on (1,3)-β-Glucan Synthase was 25.0 µg/mL.

For the origin of these results see US5863773A, “Antifungal corynecandin” (Abbott Laboratories, priority 1997, dated 1999).
